The values that follow come from patent US11566049B2, “Cyclic peptides and uses thereof” (LATERAL IP PTY LTD, priority 2018, dated 2023).

For one experiment, the system named is Chung model rats. Briefly: Chung model of neuropathic pain, paw withdrawal (Example 2). Format: in vivo, rat. The settings on record: 10 mg/kg orally or intramuscular; 1, 2 and 4 hours post-dosing; n=8. As to the method:
The peptide of SEQ ID NO:26 was administered at 10 mg/kg either orally (PQ) or by intramuscular (IM) injection to Chung model rats and pain was assessed by paw withdrawal. Pre-dosing control; Vehicle: 5% DMSO in PBS. *** p<0.001, compared to the same time points in the Vehicle control group; #p<0.05, compared to SEQ ID NO:26 PO group at the same time point. n=8 for each group.
An […] Chung model of chronic nerve constriction in rats (Chung et al., Methods Mol. Med. 2004; 99:35-45) was used to assess the effect of SEQ ID NO:26 on neuropathic pain. SEQ ID NO:26 was administered at 10 mg/kg either orally or by intramuscular injection to Chung model rats and pain was assessed by paw withdrawal.

The test system of experiment [1] is Lamina I or II neurons in the dorsal horn. Briefly: whole-cell patch clamp recording in spinal cord slices with intact dorsal root afferents from Chung models (Example 1). Format: cell-based, rat. As to the method: An in vitro spinal cord slice with intact dorsal root afferents combined with single-cell whole-cell patch claim electrophysiological recording techniques was used to assess the electrophysiological properties of SEQ ID NO:26 (SCRSRPVESSC; also referred to herein as LAT9993).
Spinal cord slices were prepared from models of neuropathic pain (Chung models; as previously described in Chung et al., Methods Mol Med. 2004; 99:35-45, the contents of which are incorporated herein by reference) and tested against the peptide of SEQ ID NO:26. Chung model rats, aged 8 to 12 weeks, were housed in an air-conditioned room on a 12 hour light/dark cycle with food and water available ad libitum. The rats were terminally anaesthetized using isofluorane and decapitated. […]
Whole-cell recordings were performed at 34-35° C. from Lamina I or II neurons in the dorsal horm of the spinal cord slices using Axopatch 1D and/or Multiclamp 700B amplifies and using the “blind” version of the patch-clamp technique. […] Biocytin was included in the patch solution to allow post-recording identification of the recorded neurons. The peptide of SEQ ID NO:26 was applied to the recorded tissue in the tissue bath at concentrations between 0.5 μM and 5 μM.
On the technique in general: The patch-clamp technique gives a direct electrical read-out from membranes.

Entries after “also recorded” stand apart in the source; their conditions may differ. Positions of bridges follow the written chain, without caps; N, C: chain ends. No end group written: not given here.

Regarding “SCRSRPVESSC (disulfide 2-11 (inferred); listed as Homo sapiens) [SEQ ID NO:26, cyclic peptide of formula (I) formed by a disulphide bond between the two cysteine residues]”, the “pain as measured by paw withdrawal threshold (PWT)” value with Chung model rats is “significantly reduced pain”. The “neuronal input resistance (effect in words)” value in experiment [1] (1 μM (FIG. 2), bath applied) is “reduction in neuronal input resistance; also recorded: reversible on washout”. The “excitatory postsynaptic potentials (EPSPs)” value in experiment [1] (5 μM (FIG. 3), 0.1 Hz, 1 Hz) is listed as “suppressed”.
